Test results published in US8183264B2, “Pyridine derivative substituted by heteroaryl ring, and antifungal agent comprising the same” (Eisai R&D Managment Co., Ltd., priority 2006, dated 2012).
Values after ≈ are worked out from the molar mass of the structure shown.

How the values were obtained:
[1] = tested on: C. albicans E81022 strain; assay: Experimental systemic candidal infection model in mice; format: in vivo; details: peroral, 3 times every 4 hours, female ICR mice infected iv with C. albicans E81022, observed until 14 days after infection
Experimental: 2. Experimental Systemic Candidal Infection Model in Mice (1) Preparation of Fungal Inoculant
A standing culture of C. albicans E81022 strain was carried out for 48 hours at 30° C. in Sabouraud dextrose agar medium (SDA), and the recovered fungal cells were suspended in sterilized physiological saline. By counting the fungal number on cytometry plate, the suspension was diluted to 2×10^7 cells/mL with sterilized physiological saline to serve fungal inoculum.
The fungal inoculum was used in amounts of 0.2 mL to inoculate 4.5 to 5.5 week-old female ICR mice in the tail vein (4×10^6 cells/mouse).
From 0.5 to 1 hour after fungal inoculation, 0.2 mL of agent solution (dissolved or suspended in sterilized physiological saline containing 6.5% dimethyl sulfoxide and 3.5% Tween 80) was administered into the stomach using a peroral probe, 3 times every 4 hours. The agent concentration was 2.5 or 10 mg/kg, and the number of animal in one group was five animals.
(4) Determination of Effects
The protective effect was determined by observing life/death until 14 days after infection and calculating the mean survival days.

[2] = tested on: A. fumigatus Tsukuba strain; assay: Anti-Aspergillus activity (MIC measurement); format: cell-based; details: minimum inhibitory concentration (MIC) by visual inspection, RPMI 1640, 42 to 48 hours at 35° C.
Experimental: (§1) 1. Anti-Candida Activity and Anti-Aspergillus Activity
(§2) (1) Preparation of Fungal Sample
(§3) For the C. albicans CAF2-1 strain, a fungal suspension from a standing culture for 48 hours at 30° C. in a Sabouraud dextrose liquid culture medium (SDB) was diluted with RPMI 1640 medium to adjust a fungal suspension of 1.2×10^3 cells/mL. For the A. fumigatus Tsukuba strain, −80° C. stored strain was diluted with RPMI 1640 medium to adjust to a fungal suspension of 4.5×10^3 cells/mL.
(§4) (2) Preparation of an Agent Dilution Plate
(§5) Using a U-bottomed 96-well plate, 8 samples/plate (A to H) of sample dilution solutions were prepared. On the 2nd to 12th rows were dispensed 10 μL of dimethyl sulfoxide solution. Weighed sample was dissolved in dimethyl sulfoxide to prepare a 2.5 mg/mL solution, 20 μL of this solution was added to the first row of the prepared plate, and 12 steps of two-fold step dilutions (10 μL of solution+10 μL of dimethyl sulfoxide solution) were performed on the plate. This sample dilution solution was dispensed in an amount of 1 μL into a flat-bottomed 96-well plate for MIC measurement to prepare a sample dilution plate.
(§6) (3) Inoculation of Fungal Suspension and Culture
(§7) The fungal suspension prepared in (1) was used in an amount of 99 μL/well to inoculate the flat-bottomed 96-well plate containing 1 μL/well of the test compound dilution prepared in (2), and standing culture was performed aerobically for 42 to 48 hours at 35° C.
(§8) The following representative compounds prepared in the examples were measured for anti-Candida activity and anti-Aspergillus activity by measurement method in (1).

[3] = tested on: C. albicans CAF2-1 strain; assay: Anti-Candida activity (MIC measurement); format: cell-based; details: CAF21STRAIN, minimum inhibitory concentration (MIC) by visual inspection, RPMI 1640, 42 to 48 hours at 35° C.
Experimental: as §1, §2, §3, §4, §5, §6, §7, §8

Compound | Mean Survival Day (MSD) ([1]; Dose 10 mg/kg) | MIC [2] | MIC [3] | Mean Survival Day (MSD) ([1]; Dose 2.5 mg/kg)
Nc1ncccc1-c1nnn(Cc2ccc(OCc3ccccc3)cc2)n1 [Example 5, 3-(2-(4-Benzyloxy-benzyl)-2H-tetrazol-5-yl)-pyridin-2-ylamine] | 11.8 days | 1.56 µg/mL (≈ 4.35 µM) | 0.78 µg/mL (≈ 2.18 µM) | –
Nc1ncccc1-c1nnc(Cc2ccc(OCc3ccccc3)cc2)o1 [Example 9] | 10.8 days | 0.78 µg/mL (≈ 2.18 µM) | 0.39 µg/mL (≈ 1.09 µM) | 7.8 days
Nc1ccc(-c2nnn(Cc3ccc(OCc4ccccn4)cc3)n2)c(N)n1 [Example 27, 3-(2-(4-(Pyridin-2-ylmethoxy)-benzyl)-2H-tetrazol-5-yl)-pyridin-2,6-diamine] | 12 days | 0.78 µg/mL (≈ 2.08 µM) | 0.2 µg/mL (≈ 0.534 µM) | 5.6 days
CCCCOCc1ccc(Cn2cc(-c3ccc(COC)nc3N)nn2)cc1 [Example 41, 3-[1-(4-Butoxymethyl-benzyl)-1H-[1,2,3]triazol-4-yl]-6-methoxymethyl-pyridin-2-ylamine] | 11.2 days | 1.56 µg/mL (≈ 4.09 µM) | 0.39 µg/mL (≈ 1.02 µM) | 6.2 days
CCCCOCc1ccc(Cn2cc(-c3ccc(N)nc3N)nn2)cc1 [Example 42, 3-(1-(4-Butoxymethyl-benzyl)-1H-[1,2,3]triazol-4-yl)-pyridin-2,6-diamine] | 13.6 days | 0.78 µg/mL (≈ 2.21 µM) | 0.2 µg/mL (≈ 0.567 µM) | –
Cc1ccc(Cc2ccc(Cn3nnc(-c4cccnc4N)n3)cc2)o1 [Example 53, 3-(2-(4-(5-Methyl-furan-2-ylmethyl)-benzyl)-2H-tetrazol-5-yl)-pyridin-2-ylamine] | 13.8 days | 0.78 µg/mL (≈ 2.25 µM) | 0.39 µg/mL (≈ 1.13 µM) | 7.6 days
